Assay results taken from patent publication US20060177474A1, “Agricultural and horticultural poison bait preparation” (priority 2005, published 2006).

| SMILES | melting point |
| --- | --- |
| Cc1cc(C(F)(C(F)(F)F)C(F)(F)F)ccc1NC(=O)c1cccc(Br)c1C(=O)NC(C)CS(C)(=O)=O (stereo not shown) | 153 to 155 °C |
| Cc1cc(C(F)(C(F)(F)F)C(F)(F)F)ccc1N(C(=O)c1c(I)cccc1C(N)=O)C(C)CS(C)(=O)=O (stereo not shown) [compound 27, 3-iodo-N′-{2-methyl-4-[1,2,2,2-tetrafluoro-1-(trifluoromethyl)ethyl]phenyl}-N^2-(1-methyl-2-methylsulfonylethyl)phthalamide] | 82 °C |
| Cc1cc(C(F)(C(F)(F)F)C(F)(F)F)ccc1NC(=O)c1cccc(I)c1C(=O)NC(C)C[S+](C)[O-] (stereo not shown) [compound 28, 3-iodo-N^1-{2-methyl-4-[1,2,2,2-tetrafluoro-1-(trifluoromethyl)ethyl]phenyl}-N^2-(1-methyl-2-methylsulfinylethyl)phthalamide] | 134 °C |
| Cc1cc(C(F)(C(F)(F)F)C(F)(F)F)ccc1N(C(=O)c1cccc(Cl)c1C(N)=O)C(C)CS(C)(=O)=O (stereo not shown) [compound 37, 3-chloro-N^1-{2-methyl-4-[1,2,2,2-tetrafluoro-1-(trifluoromethyl)ethyl]phenyl}-N^1-(1-methyl-2-methylsulfonylethyl)phthalamide] | 155 to 156 °C |
